Reference: patent publication US20210251208A1, “COMPOSITION AND METHOD FOR ATTRACTING BED BUGS” (NATTARO LABS AB, priority 2016, published 2021)
“And” between values parts separate entries of the source, which are not always exact repeats. Equal values may be shown once. “Also recorded” adds a separate entry of the source.

Key:
bed bugs [1] = test: Arena test of baits (52 cm arena, ten bed bugs, 30 minutes); format: in vivo; settings: baits formulated using 3 wt % methylcellulose
Method: In these tests bed bugs were placed in an arena and allowed to freely move around while the movement patterns were recorded, including in particular the time that bed bugs spent in proximity to each of the three different stations, each station comprising a bait (test compound) or control.
The arena comprised a round (52 cm diameter) white painted metal tray with a 3.8 cm high rim. Evenly spaced half way between centrum and periphery three holes (3.4 cm diam) were bored. To prevent bed bug escape the rim was painted with Insect-a-Slip (#2871C Fluon, BioQuip Products, Inc. 2321 E, Chadwick St., Rancho Dominguez, Calif. 90220) resulting in a non-porous slippery, surface at the rim of the tray.
Three plastic containers (34 mm diam×7 cm high), each with a net covered hole (18 mm diam) at the bottom to allow airflow, were attached below the holes at the underside of the arena using clay dough. At the start of an experiment the compounds/baits and controls were placed one in each container below the arena. […]
Bed bugs, ten at a time, were introduced in separate vials into the middle of the arena and simultaneously video recording was started. […] At the end of the 30 minutes experimental period, the number of bed bugs in each container, and beneath or at the rim of the convex glass sheet above each container was scored. […] The final position was not recorded during early experiments. […]

bed bugs [2] = test: Arena test of individual compounds vs. blend (40 cm arena, synergy); format: in vivo; settings: individual compound 100 mg/l in gelatine, five females and five males, N = 10
Method: The following six tests were carried out: arena test of each of the five compounds a, b, e, f, and g individually and a test of the whole blend abefg. The procedure was the following.
Gelatine solutions (lures) each containing a total of 100 mg/l of either (a) E-2-hexenal, (b) E-2-octenal, (e) E-2-hexenoic acid, (f) 2-octenoic acid and (g) 2-hexanone or the combination of the five compounds abefg were prepared.
Five female and five male bedbugs were released into the centre of the arena in a dark room. The arena was lit with infrared light and after an initial 5 min acclimatization bed bugs were released in the middle of the arena and left for 30 minutes during which time their activity was video-recorded using an Infrared light camera coupled to Noldus Ethovision 15 program. At the end of the 30 minutes period, the bed bugs were manually collected and their positions recorded.
After each replicate, the arena was cleaned with 70% ethanol and the position of the compound and controls were shifted. Ten replicates were made with each of the individual compound lures and the whole blend totalling 60 tests comprising 600 bed bugs, 300 females and 300 males. […] This value was subtracted from the number of bed bugs attracted to each lure correcting for the random part in the attraction in each replicate. The corrected values were used to calculate the average number of bed bugs attracted to each individual lure chemical and to the lure blend.

[3] = Dynamic headspace collection of volatiles from bait, GC-MS; format: physicochemical; settings: abefg 1:1:1:1:1 in gelatine 100 mg/l of each compound
Method: After collection of the enfleurage samples head-space collections were made from each container using a special lid into which an adsorbent plug was inserted. The head-space of all containers in a replicate was collected simultaneously under dark conditions (except the first samples of replicate one) using battery operated membrane pumps. The air-flow through each container was adjusted to 35-40 ml/min. The head-space samples were collected for 2 hours for replicate one to three after the first week, but was extended to 4-6 hours for replicate 4 & 5 and for all replicates and collections after the second week. This was done to secure more material as the first samples were very weak.
The samples were analyzed on a gas chromatograph (GC, Hewlett-Packard 6890 Series) equipped with a polar capillary column (Innowax; 30 m long, 0.25 mm i.d. and film thickness 0.25 μm Agilent Technologies USA) coupled to a mass spectrometer (Hewlett-Packard 5973 Mass Selective Detector). The injector temperature was 225° C. and the injection splitless. The GC temperature was programmed for 2 min at 40° C. followed by a gradual increase of 8°/min to 225° C., where the temperature was held steady for five min. Compounds were identified against the spectra and retention times of authentic reference compounds or in a few cases against the spectral libraries of ADAM and NIST2011.
One of the baits used in the Arena test was placed in a container and the dynamic headspace was collected as described in example 1 and analysed using Gas chromatography-Mass spectroscopy (GC-MS).

[4] = Stability / shelf-life of baits; format: physicochemical; settings: ascorbic acid included in gelatine baits
Excerpt: The inclusion of ascorbic acid was thus subsequently discontinued.

AMOUNT in headspace of bait ([3]; Sample no. 15:209-213) [nano gram/hour]	AMOUNT in headspace of bait ([3]; Sample no. 15:215-219) [nano gram/hour]	AMOUNT in headspace of bait ([3]; Sample no. 15:245.1-5) [nano gram/hour]	AMOUNT in headspace of bait ([3]; Sample no. 16:02.1-5) [nano gram/hour]	AMOUNT in headspace of bait ([3]; Sample no. 16.37-40) [nano gram/hour]	Compound	attractive effect in (initial) Arena tests (bed bugs [1])	No. of bed bugs at test compound position at end of experiment (average, corrected for random attraction to controls) (bed bugs [2])	effect of anti-oxidant on baits / shelf-life of the composition [4]
–	–	–	–	–	CCC(=O)/C=C/C=O [4-Oxo-(E)-2-hexenal]	no attractive effect, rather as having a repulsive effect	–	–
–	–	–	–	–	CCCCC(=O)/C=C/C=O [4-oxo-(E)-2-octenal, 4-Oxo-(E)-2-octenal]	no attractive effect, rather as having a repulsive effect	–	–
–	–	–	–	–	CCC/C=C/C=O [(a) E-2-hexenal, (E)-2-hexenal]	–	slightly deterrent effect and −0.50	–
–	–	–	–	–	CCCCC/C=C/C=O [(b) E-2-octenal, (E)-2-octenal]	–	1.35	–
0.2	3.1	0	1.4	0.08	CCC/C=C/C(=O)O [(e) E-2-hexenoic acid, (E)-2-hexenoic acid]	–	0.55	–
–	–	–	–	–	CCCCCC=CC(=O)O [(f) E-2-octenic acid, 2-Octenoic acid]	–	0.35	–
–	–	–	–	–	O=C1O[C@H]([C@@H](O)CO)C(O)=C1O [ascorbic acid]	–	–	degraded the baits and resulted in lower efficiency of the baits; also recorded: decreased the shelf-life of the composition
0	0.8	0	0	0.01	(E)-octenoic acid	–	–	–
914.5	477.6	438.5	405.2	349.9	(Z)- & (E)-2-octenal	–	–	–

Compound	AMOUNT in headspace of bait ([3]; Sample no. 15:209-213) [nano gram/hour]	AMOUNT in headspace of bait ([3]; Sample no. 15:215-219) [nano gram/hour]	AMOUNT in headspace of bait ([3]; Sample no. 15:245.1-5) [nano gram/hour]	AMOUNT in headspace of bait ([3]; Sample no. 16:02.1-5) [nano gram/hour]	AMOUNT in headspace of bait ([3]; Sample no. 16.37-40) [nano gram/hour]	attractive effect in (initial) Arena tests (bed bugs [1])	No. of bed bugs at test compound position at end of experiment (average, corrected for random attraction to controls) (bed bugs [2])	effect of anti-oxidant on baits / shelf-life of the composition [4]
CCCCC(C)=O [(g) 2-hexanone, 2-Hexanone]	429.1	310.3	168.2	76.1	402.0	–	1.35	–
(Z)- & (E)-2-Hexenal	565.6	234.6	136.3	102.2	258.3	–	–	–
